# In PMC9090415, “Discovery of small molecule inhibitors of Plasmodium falciparum apicoplast DNA polymerase” (Journal of Enzyme Inhibition and Medicinal Chemistry, 2022):
# Molecular target: P. falciparum apicoplast DNA polymerase (Pf-apPOL) (Plasmodium falciparum, UniProt Q8ILY1)
# Test: Fluorescence-based high-throughput DNA polymerase assay (molecular beacon), primary screen and dose-response
# Format: biochemical
# In short: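 Single-point screening used 10 µM compound with 20 nM polymerase, 20 nM hairpin substrate and 6 µM dNTPs for 90 min at 25 °C. Confirmatory titrations (2.5–80 µM) followed fluorescence at three times, and IC50 was derived from a fit including a cooperativity term n.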
# [1] = DRC-1; concentration 80 (unit not given); 10'
# [2] = primary screen value of the 186 hits; unit not given; 90 min, 10 µM
# [3] = primary screen value; head prints only 'DNA Pol'; 90 min, 10 µM
# [4] = supplemental file 2, sheet IC50 nontoxic compounds; Pf-apPOL
# P. falciparum apicoplast DNA polymerase (Pf-apPOL), sequence (Q8ILY1 entry or part of it): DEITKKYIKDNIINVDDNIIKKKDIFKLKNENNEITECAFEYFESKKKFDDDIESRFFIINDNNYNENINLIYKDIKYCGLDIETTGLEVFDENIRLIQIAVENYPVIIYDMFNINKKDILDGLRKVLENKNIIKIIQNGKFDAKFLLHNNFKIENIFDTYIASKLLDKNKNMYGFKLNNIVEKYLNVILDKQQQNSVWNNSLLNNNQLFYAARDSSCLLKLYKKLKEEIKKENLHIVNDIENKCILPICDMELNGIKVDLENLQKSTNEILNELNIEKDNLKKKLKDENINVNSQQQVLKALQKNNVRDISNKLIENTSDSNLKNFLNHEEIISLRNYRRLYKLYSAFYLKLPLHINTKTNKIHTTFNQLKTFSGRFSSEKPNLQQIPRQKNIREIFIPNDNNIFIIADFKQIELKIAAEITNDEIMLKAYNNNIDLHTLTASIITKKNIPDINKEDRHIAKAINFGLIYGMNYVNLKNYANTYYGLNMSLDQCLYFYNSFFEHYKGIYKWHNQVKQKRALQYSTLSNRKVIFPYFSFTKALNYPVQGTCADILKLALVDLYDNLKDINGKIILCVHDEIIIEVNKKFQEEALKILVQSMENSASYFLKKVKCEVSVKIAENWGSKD
smiles,measurement,setting,value
COc1ccc(-c2occ(C(=O)O)c2C(=O)O)cc1 [KU0021536],% inhibition Apo pol 10',DRC-1; concentration 2.5; 10',12.66%
same,% inhibition Apol 90',DRC-1; concentration 2.5; 90',6.208%
same,% inhibition apPOL 180',DRC-1; concentration 2.5; 180',0.2787%
same,% inhibition Apo pol 10',DRC-1; concentration 5; 10',21.9361%
same,% inhibition Apol 90',DRC-1; concentration 5; 90',18.5169%
same,% inhibition apPOL 180',DRC-1; concentration 5; 180',12.9539%
same,% inhibition Apo pol 10',DRC-1; concentration 10; 10',43.1098%
same,% inhibition Apol 90',DRC-1; concentration 10; 90',39.5848%
same,% inhibition apPOL 180',DRC-1; concentration 10; 180',35.5357%
same,% inhibition Apo pol 10',DRC-1; concentration 20; 10',66.1228%
same,% inhibition Apol 90',DRC-1; concentration 20; 90',63.2397%
same,% inhibition apPOL 180',DRC-1; concentration 20; 180',62.8921%
same,% inhibition Apo pol 10',DRC-1; concentration 40; 10',86.5866%
same,% inhibition Apol 90',DRC-1; concentration 40; 90',84.6266%
same,% inhibition apPOL 180',DRC-1; concentration 40; 180',85.4203%
same,% inhibition Apo pol 10',[1],93.5468%
same,% inhibition Apol 90',DRC-1; concentration 80; 90',92.3135%
same,% inhibition apPOL 180',DRC-1; concentration 80; 180',92.8082%
same,% inhibition Apo pol 5',DRC-2; 5'; concentration 40,50%
same,% inhibition Apol 40',DRC-2; 40'; concentration 10,48%
same,% inhibition ApPOL 90',DRC-2; 90'; concentration 10,50%
same,% inhibition ApPOL 90',DRC-2; 90'; concentration 80,77%
same,% inhibition apPOL 180',DRC-2; 180'; concentration 10,48%
same,% inhibition apPOL 180',DRC-2; 180'; concentration 40,77%
same,% inhibition Apo pol 5',DRC-2; concentration 2.5; 5',7%
same,% inhibition Apol 40',DRC-2; concentration 2.5; 40',17%
same,% inhibition ApPOL 90',DRC-2; concentration 2.5; 90',16%
same,% inhibition apPOL 180',DRC-2; concentration 2.5; 180',10%
same,% inhibition Apo pol 5',DRC-2; concentration 5; 5',21%
same,% inhibition Apol 40',DRC-2; concentration 5; 40',30%
same,% inhibition ApPOL 90',DRC-2; concentration 5; 90',32%
same,% inhibition apPOL 180',DRC-2; concentration 5; 180',27%
same,% inhibition Apo pol 5',DRC-2; concentration 10; 5',34%
same,% inhibition Apol 40',DRC-2; concentration 10; 40',48%
same,% inhibition ApPOL 90',DRC-2; concentration 10; 90',50%
same,% inhibition apPOL 180',DRC-2; concentration 10; 180',48%
same,% inhibition Apo pol 5',DRC-2; concentration 20; 5',43%
same,% inhibition Apol 40',DRC-2; concentration 20; 40',62%
same,% inhibition ApPOL 90',DRC-2; concentration 20; 90',66%
same,% inhibition apPOL 180',DRC-2; concentration 20; 180',67%
same,% inhibition Apo pol 5',DRC-2; concentration 40; 5',50%
same,% inhibition Apol 40',DRC-2; concentration 40; 40',70%
same,% inhibition ApPOL 90',DRC-2; concentration 40; 90',75%
same,% inhibition apPOL 180',DRC-2; concentration 40; 180',77%
same,% inhibition Apo pol 5',DRC-2; concentration 80; 5',51%
same,% inhibition Apol 40',DRC-2; concentration 80; 40',74%
same,% inhibition ApPOL 90',DRC-2; concentration 80; 90',77%
same,% inhibition apPOL 180',DRC-2; concentration 80; 180',80%
same,DNA Pol,[2],29
same,DNA Pol,[3],29
O=C1c2ccccc2C(=O)c2c1oc1c3c(ccc21)OCN(C1CCCC1)C3 [KU0064306],% inhibition Apo pol 10',DRC-1; concentration 2.5; 10',14.122%
same,% inhibition Apol 90',DRC-1; concentration 2.5; 90',11.9333%
same,% inhibition apPOL 180',DRC-1; concentration 2.5; 180',9.893%
same,% inhibition Apo pol 10',DRC-1; concentration 5; 10',20.6805%
same,% inhibition Apol 90',DRC-1; concentration 5; 90',18.9077%
same,% inhibition apPOL 180',DRC-1; concentration 5; 180',20.5988%
same,% inhibition Apo pol 10',DRC-1; concentration 10; 10',48.1868%
same,% inhibition Apol 90',DRC-1; concentration 10; 90',43.2395%
same,% inhibition apPOL 180',DRC-1; concentration 10; 180',45.5926%
same,% inhibition Apo pol 10',DRC-1; concentration 20; 10',73.389%
same,% inhibition Apol 90',DRC-1; concentration 20; 90',72.2655%
same,% inhibition apPOL 180',DRC-1; concentration 20; 180',74.7554%
same,% inhibition Apo pol 10',DRC-1; concentration 40; 10',87.7037%
same,% inhibition Apol 90',DRC-1; concentration 40; 90',89.2086%
same,% inhibition apPOL 180',DRC-1; concentration 40; 180',90.8162%
same,% inhibition Apo pol 10',[1],89.3485%
same,% inhibition Apol 90',DRC-1; concentration 80; 90',90.7443%
same,% inhibition apPOL 180',DRC-1; concentration 80; 180',92.3974%
same,% inhibition Apo pol 5',DRC-2; 5'; concentration 5,23%
same,% inhibition Apo pol 5',DRC-2; 5'; concentration 40,47%
same,% inhibition Apol 40',DRC-2; 40'; concentration 2.5,17%
same,% inhibition Apol 40',DRC-2; 40'; concentration 80,60%
same,% inhibition ApPOL 90',DRC-2; 90'; concentration 2.5,17%
same,% inhibition ApPOL 90',DRC-2; 90'; concentration 10,47%
same,% inhibition ApPOL 90',DRC-2; 90'; concentration 20,60%
same,% inhibition apPOL 180',DRC-2; 180'; concentration 5,23%
same,% inhibition apPOL 180',DRC-2; 180'; concentration 10,47%
same,% inhibition Apo pol 5',DRC-2; concentration 2.5; 5',16%
same,% inhibition Apol 40',DRC-2; concentration 2.5; 40',17%
same,% inhibition ApPOL 90',DRC-2; concentration 2.5; 90',17%
same,% inhibition apPOL 180',DRC-2; concentration 2.5; 180',15%
same,% inhibition Apo pol 5',DRC-2; concentration 5; 5',23%
same,% inhibition Apol 40',DRC-2; concentration 5; 40',24%
same,% inhibition ApPOL 90',DRC-2; concentration 5; 90',25%
same,% inhibition apPOL 180',DRC-2; concentration 5; 180',23%
same,% inhibition Apo pol 5',DRC-2; concentration 10; 5',42%
same,% inhibition Apol 40',DRC-2; concentration 10; 40',46%
same,% inhibition ApPOL 90',DRC-2; concentration 10; 90',47%
same,% inhibition apPOL 180',DRC-2; concentration 10; 180',47%
same,% inhibition Apo pol 5',DRC-2; concentration 20; 5',43%
same,% inhibition Apol 40',DRC-2; concentration 20; 40',55%
same,% inhibition ApPOL 90',DRC-2; concentration 20; 90',60%
same,% inhibition apPOL 180',DRC-2; concentration 20; 180',63%
same,% inhibition Apo pol 5',DRC-2; concentration 40; 5',47%
same,% inhibition Apol 40',DRC-2; concentration 40; 40',62%
same,% inhibition ApPOL 90',DRC-2; concentration 40; 90',68%
same,% inhibition apPOL 180',DRC-2; concentration 40; 180',72%
same,% inhibition Apo pol 5',DRC-2; concentration 80; 5',44%
same,% inhibition Apol 40',DRC-2; concentration 80; 40',60%
same,% inhibition ApPOL 90',DRC-2; concentration 80; 90',65%
same,% inhibition apPOL 180',DRC-2; concentration 80; 180',70%
same,DNA Pol,[2],61
same,DNA Pol,[3],61
O=C(Cn1ccc2c(=O)[nH]ccc21)Nc1cccc(Cl)c1 [Molecule 23],IC50,[4],9.11 µM
COc1ccc(NC(=O)Cn2ccc3c(=O)[nH]ccc32)cc1 [Molecule 13],IC50,[4],7.09 µM
